# From patent US10280145B2 (Toray Industries, Inc., priority 2015, dated 2019)
# pIC50: −log10 of the molar value.
# Molecular target: T1, intracellular domain of DDR1 (Homo sapiens, UniProt Q08345)
# T1 construct: the intracellular domain of DDR1 (in a final concentration of 5 ng/μL) (Carna Biosciences, Inc.); purchased Carna Biosciences, Inc
# Experiment: Evaluation of DDR1 inhibition activity with HTRF KinEASE-TK kit
# Format: biochemical
# Details: DDR1 intracellular domain 5 ng/μL, ATP 25 μm/L, TK Substrate-biotin 1000 nmol/L, room temperature, one hour
# Protocol: The DDR1 inhibition activity in the compounds of Examples 1 to 80 was evaluated with HTRF® KinEASE-TK kit (Cisbio Bioassays).
# Each test substance was dissolved in dimethyl sulfoxide and then used for the evaluation as described below. Moreover, each of test substances and reagents was diluted in the kinase buffer (Cisbio Bioassays) prepared by adding thereto MgCl2, MnCl2, DTT, and the Supplemental Enzyme buffer (Cisbio Bioassays) to concentrations of 5 mmol/L, 0.5 mmol/L, 0.25 mmol/L, and 50 nmol/L, respectively, and then used. Each test substance (in DMSO in a final concentration of 1%), the intracellular domain of DDR1 (in a final concentration of 5 ng/μL) (Carna Biosciences, Inc.), the phosphate donor ATP (in final concentration of 25 μm/L) (Sigma), and the substrate TK Substrate-biotin (in a final concentration of 1000 nmol/L) (Cisbio Bioassays) were added to a 384-well black plate (Corning) and allowed to react at room temperature for one hour. After completion of the reaction, the TK Antibody-Cryptate (Cisbio Bioassays) and the Streptavidin-XL665 (Cisbio Bioassays) were added thereto and allowed to react at room temperature for one hour. In addition, the plate was provided with a well to which a test substance was not added, and with a well to which a test substance and the intracellular domain of DDR1 were […].
# The fluorescence intensity in each well was measured using a multi-label counter (Envision, PerkinElmer; excitation wavelength: 320 nm, measurement wavelength: 665 nm and 620 nm) to calculate a ratio (the fluorescence intensity at 665 nm/the fluorescence intensity at 620 nm). The inhibition rate (%) of a test substance at each concentration was calculated based on the formula below: Inhibition rate (%)=([the ratio obtained from the well containing no test substance]−[the ratio from a well containing a test substance])/([the ratio obtained from the well containing no test substance]−[the ratio obtained from the well containing no intracellular domain of DDR1 and no test substance])×100.
# The calculated inhibition rates were fitted to a sigmoidal dose-response curve by regression analysis using the Prism 5.04 (GraphPad Software, Inc.) to calculate the IC50 value of the test substance.
# T1 sequence (Q08345 439-913 limits assumed): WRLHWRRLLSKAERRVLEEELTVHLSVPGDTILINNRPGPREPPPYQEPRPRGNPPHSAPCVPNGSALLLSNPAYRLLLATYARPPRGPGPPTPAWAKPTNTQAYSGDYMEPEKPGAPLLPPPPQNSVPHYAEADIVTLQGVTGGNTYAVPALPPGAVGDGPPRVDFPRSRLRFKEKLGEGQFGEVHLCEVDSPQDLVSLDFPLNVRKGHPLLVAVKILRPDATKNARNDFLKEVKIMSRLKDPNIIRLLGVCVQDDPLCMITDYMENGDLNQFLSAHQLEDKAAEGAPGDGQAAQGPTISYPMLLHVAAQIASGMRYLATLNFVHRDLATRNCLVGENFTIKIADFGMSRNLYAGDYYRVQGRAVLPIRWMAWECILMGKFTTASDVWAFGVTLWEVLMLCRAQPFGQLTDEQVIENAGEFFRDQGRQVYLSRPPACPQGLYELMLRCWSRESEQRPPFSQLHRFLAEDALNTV
row,SMILES,pIC50
1,"COc1ccc(OC(F)(F)F)cc1NC(=O)N[C@H]1CC[C@H](Oc2cccnc2)CC1 [Example 18, 1-(2-methoxy-5-(trifluoromethoxy)phenyl)-3-(trans-4-(pyridin-3-yloxy)cyclohexyl)urea]",6.79
2,"COc1c(CO)cc(OC(F)(F)F)cc1NC(=O)N[C@H]1CC[C@H](OCc2cccnc2)CC1 [Example 67, 1-(3-(hydroxymethyl)-2-methoxy-5-(trifluoromethoxy)phenyl)-3-(trans-4-(pyridin-3-ylmethoxy)cyclohexyl)urea]",8.01
3,"CNc1nccc(O[C@H]2CC[C@H](NC(=O)Nc3cc(C(F)(F)F)ccc3OC3COC3)CC2)n1 [Example 64, 1-(trans-4-((2-(methylamino)pyrimidin-4-yl)oxy)cyclohexyl)-3-(2-(oxetan-3-yloxy)-5-(trifluoromethyl)phenyl)urea]",7.26
4,"COc1ccc(OC(F)(F)F)cc1NC(=O)N[C@H]1CC[C@H](COCc2cccnc2)CC1 [Example 72, 1-(2-methoxy-5-(trifluoromethoxy)phenyl)-3-(trans-4-((pyridin-3-ylmethoxy)methyl)cyclohexyl)urea]",7.09
5,"COc1ccc(OC(F)(F)F)cc1NC(=O)N[C@H]1CC[C@H](OCc2cccnc2)CC1 [Example 68, 1-(2-methoxy-5-(trifluoromethoxy)phenyl)-3-(trans-4-(pyridin-3-ylmethoxy)cyclohexyl)urea]",7.78
6,"COc1ccc(C(F)(F)F)cc1NC(=O)N[C@H]1CC[C@H](COCc2cccnc2)CC1 [Example 73, 1-(2-methoxy-5-(trifluoromethyl)phenyl)-3-(trans-4-((pyridin-3-ylmethoxy)methyl)cyclohexyl)urea]",7.24
7,"COc1c(CO)cc(C(F)(F)F)cc1NC(=O)N[C@H]1CC[C@H](Oc2ccnc(N3CCOCC3)n2)CC1 [Example 6, 1-(3-(hydroxymethyl)-2-methoxy-5-(trifluoromethyl)phenyl)-3-(trans-4-((2-morpholinopyrimidin-4-yl)oxy)cyclohexyl)urea]",7.21
8,"COc1c(CO)cc(C(F)(F)F)cc1NC(=O)N[C@H]1CC[C@H](Oc2ccnc(-c3cccnc3)n2)CC1 [Example 45, 1-(3-(hydroxymethyl)-2-methoxy-5-(trifluoromethyl)phenyl)-3-(trans-4-((2-(pyridin-3-yl)pyrimidin-4-yl)oxy)cyclohexyl)urea]",7.47
9,"COc1ccc(S(F)(F)(F)(F)F)cc1NC(=O)N[C@H]1CC[C@H](Oc2ncccn2)CC1 [Example 10, 1-(2-methoxy-5-(pentafluorosulfanyl)phenyl)-3-(trans-4-(pyrimidin-2-yloxy)cyclohexyl)urea]",6.78
10,"CNc1ccnc(O[C@H]2CC[C@H](NC(=O)Nc3cc(OC(F)(F)F)ccc3OC)CC2)n1 [Example 54, 1-(2-methoxy-5-(trifluoromethoxy)phenyl)-3-(trans-4-((4-(methylamino)pyrimidin-2-yl)oxy)cyclohexyl)urea]",7.02
11,"O=C(Nc1cc(C(F)(F)F)ccc1OC1COC1)N[C@H]1CC[C@H](Oc2ccnc(NCCO)n2)CC1 [Example 63, 1-(trans-4-((2-((2-hydroxyethyl)amino)pyrimidin-4-yl)oxy)cyclohexyl)-3-(2-(oxetan-3-yloxy)-5-(trifluoromethyl)phenyl)urea]",7.33
12,"COc1ccc(C(F)(F)F)cc1NC(=O)N[C@H]1CC[C@H](Oc2ncccn2)CC1 [Example 11, 1-(2-methoxy-5-(trifluoromethyl)phenyl)-3-(trans-4-(pyrimidin-2-yloxy)cyclohexyl)urea]",6.42
13,"COc1c(CO)cc(S(F)(F)(F)(F)F)cc1NC(=O)N[C@H]1CC[C@H](Oc2ccnc(N3CCOCC3)n2)CC1 [Example 5, 1-(3-(hydroxymethyl)-2-methoxy-5-(pentafluorosulfanyl)phenyl)-3-(trans-4-((2-morpholinopyrimidin-4-yl)oxy)cyclohexyl)urea]",7.18
14,"CNc1nccc(O[C@H]2CC[C@H](NC(=O)Nc3cc(C(F)(F)F)cc(CO)c3OC)CC2)n1 [Example 65, 1-(3-(hydroxymethyl)-2-methoxy-5-(trifluoromethyl)phenyl)-3-(trans-4-((2-(methylamino)pyrimidin-4-yl)oxy)cyclohexyl)urea]",7.38
15,"O=C(Nc1cc(C(F)(F)F)ccc1N1CCOCC1)N[C@H]1CC[C@H](Oc2ncccn2)CC1 [Example 57, 1-(2-morpholino-5-(trifluoromethyl)phenyl)-3-(trans-4-(pyrimidin-2-yloxy)cyclohexyl)urea]",6.19
16,"O=C1CN(c2ccc(C(F)(F)F)cc2NC(=O)N[C@H]2CC[C@H](Oc3ccnc(N4CCOCC4)n3)CC2)CCN1 [Example 8, 1-(trans-4-((2-morpholinopyrimidin-4-yl)oxy)cyclohexyl)-3-(2-(3-oxopiperazin-1-yl)-5-(trifluoromethyl)phenyl)urea]",7.33
17,"CCOc1ccc(C(F)(F)F)cc1NC(=O)N[C@H]1CC[C@H](Oc2ccnc(N3CCOCC3)n2)CC1 [Example 46, 1-(2-ethoxy-5-(trifluoromethyl)phenyl)-3-(trans-4-((2-morpholinopyrimidin-4-yl)oxy)cyclohexyl)urea]",6.27
18,"O=C1CN(c2ccc(C(F)(F)F)cc2NC(=O)N[C@H]2CC[C@H](Oc3ncccn3)CC2)CCN1 [Example 15, 1-(2-(3-oxopiperazin-1-yl)-5-(trifluoromethyl)phenyl)-3-(trans-4-(pyrimidin-2-yloxy)cyclohexyl)urea]",7.14
19,"O=C(Nc1ccc(CO)c(C(F)(F)F)c1)N[C@H]1CC[C@H](Oc2ccnc(N3CCOCC3)n2)CC1 [Example 53, 1-(4-(hydroxymethyl)-3-(trifluoromethyl)phenyl)-3-(trans-4-((2-morpholinopyrimidin-4-yl)oxy)cyclohexyl)urea]",6.60
20,"O=C(Nc1cc(OC(F)(F)F)ccc1OC1COC1)N[C@H]1CC[C@H](Oc2ccnc(N3CCOCC3)n2)CC1 [Example 44, 1-(trans-4-((2-morpholinopyrimidin-4-yl)oxy)cyclohexyl)-3-(2-(oxetan-3-yloxy)-5-(trifluoromethoxy)phenyl)urea]",6.89

# Next, values leading:
row,pIC50,SMILES
1,6.63,"O=C(Nc1cccc(C(F)(F)F)c1)N[C@H]1CC[C@H](OCc2ccncc2)CC1 [Example 22, 1-(trans-4-(pyridin-4-ylmethoxy)cyclohexyl)-3-(3-(trifluoromethyl)phenyl)urea]"
2,6.38,"Cc1ccc(C(F)(F)F)cc1NC(=O)N[C@H]1CC[C@H](OCc2ccncc2)CC1 [Example 25, 1-(2-methyl-5-(trifluoromethyl)phenyl)-3-(trans-4-(pyridin-4-ylmethoxy)cyclohexyl)urea]"
3,7.25,"O=C(Nc1cc(C(F)(F)F)ccc1OC1COC1)N[C@H]1CC[C@H](OCc2ccncc2)CC1 [Example 56, 1-(2-(oxetan-3-yloxy)-5-(trifluoromethyl)phenyl)-3-(trans-4-(pyridin-4-ylmethoxy)cyclohexyl)urea]"
4,6.59,"O=C(Nc1cc(C(F)(F)F)ccc1F)N[C@H]1CC[C@H](OCc2ccncc2)CC1 [Example 27, 1-(2-fluoro-5-(trifluoromethyl)phenyl)-3-(trans-4-(pyridin-4-ylmethoxy)cyclohexyl)urea]"
5,8.00,"O=C(Nc1cc(C(F)(F)F)ccc1OC1CCNCC1)N[C@H]1CC[C@H](OCc2ccncc2)CC1 [Example 32, 1-(2-(piperidin-4-yloxy)-5-(trifluoromethyl)phenyl)-3-(trans-4-(pyridin-4-ylmethoxy)cyclohexyl)urea]"
6,7.57,CNc1cc(O[C@H]2CC[C@H](NC(=O)Nc3cc(C(F)(F)F)ccc3OC3CNC3)CC2)ncn1 [Example 42]
7,7.12,"O=C(Nc1cc(C(F)(F)F)ccc1OC1CNC1)N[C@H]1CC[C@H](OCc2ccncc2)CC1 [Example 31, 1-(2-(azetidin-3-yloxy)-5-(trifluoromethyl)phenyl)-3-(trans-4-(pyridin-4-ylmethoxy)cyclohexyl)urea]"
8,7.85,"O=C(Nc1cc(C(F)(F)F)ccc1OC1COC1)N[C@H]1CC[C@H](OCc2cccnc2)CC1 [Example 76, 1-(2-(oxetan-3-yloxy)-5-(trifluoromethyl)phenyl)-3-(trans-4-(pyridin-3-ylmethoxy)cyclohexyl)urea]"
9,7.41,"COc1c(CO)cc(C(F)(F)F)cc1NC(=O)N[C@H]1CC[C@H](OCc2ccncc2)CC1 [Example 21, 1-(3-(hydroxymethyl)-2-methoxy-5-(trifluoromethyl)phenyl)-3-(trans-4-(pyridin-4-ylmethoxy)cyclohexyl)urea]"
10,6.99,"O=C(Nc1cc(C(F)(F)F)ccc1N1CCOCC1)N[C@H]1CC[C@H](OCc2ccncc2)CC1 [Example 28, 1-(2-morpholino-5-(trifluoromethyl)phenyl)-3-(trans-4-(pyridin-4-ylmethoxy)cyclohexyl)urea]"
